# “Also recorded” adds a separate entry of the source.
# Assays:
# [1] = test system: parent pGLori sequence; experiment: Firefly luciferase reporter gene assay in HepG2 cells stably transfected with parent construct (control); assay type: cell-based
# Method: Oligonucleotides targeted to the polymerase translation initiation region were also tested in mammalian cells using a firefly luciferase reporter gene assay. The 35 nucleotide region spanning the translation start site of the HBV ayw polymerase gene from nt 2294–2328 was cloned 5′ to, and in frame with, the entire open reading frame of the firefly luciferase gene in the plasmid pGLori, to produce the plasmid pGLpol (FIG. 10). Transcription of this pol-luciferase gene fusion was placed under the control of the cytomegalovirus early gene promoter. Expression of the pol-luciferase fusion in mammalian cells was quantified in a luminometer by addition of luciferin substrate and ATP cofactor to cell lysates. In all cellular antisense assays, a random sequence 20mer phosphorothioate oligonucleotide (random 20mer PS) was used as a negative control. […]
# Stably transfected HepG2 cells were seeded into 96 well plates. […] Cells were washed twice with Dulbecco's phosphate-buffered saline (PBS) and lysed in 50 μl cell lysis buffer (Analytical Luminescence Laboratory, San Diego, Calif.). Luciferase activity was measured in 20 μl lysate using Analytical Luminescence Laboratory substrates in a MicroLumat LB 96 P luminometer (EG&G Berthold, Nashua, N.H.).
# [2] = test system: internally 32P-labelled HBV precore-core RNA (epsilon region); experiment: RNase H cleavage of HBV precore-core RNA with noncontiguous oligonucleotides targeted to the epsilon region; assay type: biochemical, hepatitis B virus
# Method: To determine whether an oligonucleotide of the invention is capable of successfully hybridizing to its target, an RNase H assay was performed (Frank et al. (1993) Proc. Int. Conf. Nucleic Acid Med. Applns. 1:4.14(abstract)). This assay is useful when a region of at least four contiguous nucleotides of the oligonucleotide is DNA and the target is RNA. Hybridization of the DNA portion of the oligonucleotide to the RNA target is identified by cleavage at that site by RNase H.
# Noncontiguous oligonucleotides targeted to the HBV epsilon region have also been prepared and tested. The epsilon region is characterized by an RNA stem-loop structure consisting primarily of double-stranded RNA with a single-stranded bulge and loop of 6 bases each (FIG. 3). […] The ability of RNase H to cleave an RNA in this manner inflicts greater damage on the RNA than normal antisense oligodeoxynucleotides, while allowing the targeting of a biologically important region that is otherwise difficult to target due to its double-stranded nature.
# Based on this information, several oligodeoxynucleotide phosphorothioates were prepared to test the hypothesis that hybridization by mode B is preferred when spanning the base of an RNA stem. 20mer and 24mer noncontiguous oligonucleotides (Table 2) were prepared as well as the 10mers and 12mers corresponding to the “arms” of the noncontiguous sequences.
# If a single oligodeoxynucleotide were able to bind across the base of epsilon to sequences on either side of the stem, RNase H might cleave both sites and effectively cut out the epsilon stem-loop from the RNA. […] The 12+12 noncontiguous phosphorothioates show the same ability to bind across the base of the RNA stem. […] Double cleavage of the transcript in the presence of the mixture of 12mer arms (HBV71+HBV72) was much slower (FIG. 6B).
# When oligonucleotides hybridizing via mode B were lengthened to allow strand invasion of the RNA stem, disruption of the stem-loop structure occurred. Oligonucleotides HBV89 (SEQ ID NO:39), HBV90 (SEQ ID NO:40), and HBV91 (SEQ ID NO:41) bind across the base of epsilon via mode B and strand invade on either the 5 side (HBV89) or the 3′ side (HBV90 and HBV91) of the RNA stem. HBV89M is an extension of HBV64M with ten 2′-O-methyl RNA residues invading the RNA stem on the 5′-side. Addition of these strand invading nucleotides increased the cleavage efficiency from 23% to 32% at 100 nM oligonucleotide.
# Uniformally ^32P-labelled RNA was prepared from 1 μg linearized plasmid using the Ambion MEGAscript In Vitro Transcription Kit (Ambion, Inc., Austin, Tex.) according to the manufacturers' instructions, using [α-^32p] CTP as the radioactive label. The RNA was treated with RNase-free DNase I (Ambion, Inc., Austin, Tex.), extracted with phenol:chloroform: isoamyl alcohol (25:24:1) and purified from nucleotides and nucleosides on a G-50 Sephadex spin column (Boehringer-Mannheim, Indianapolis, Ind., or Pharmacia, Uppsala, Sweden).
# In 9 μl 1× RNase H buffer (40 mM Tris-HCl pH 7.4, 4 mM MgCl2, 1 mM DTT), 20–100 nM labelled RNA and 100 nM oligonucleotides were preincubated for 15 min at 37° C. 1 μl RNase H (1 U/μl) was added, and the reaction was incubated at 37° C. for 10 min. The reactions were quenched and analyzed as described above.
# Quantitation of the cleavage products was performed using software supplied with the Phosphorimager (Molecular Dynamics, Sunnyvale, Calif., or Bio-Rad Laboratories, Hercules, Calif.). “Counts” were determined by drawing a box around the band of interest and subtracting the background determined with a box drawn nearby. Counts in a product band were compared to total counts in the lane above that band to determine % cleavage.
# [3] = test system: replicative intermediate (RI) HBV DNA in HepG2.2.15 cells; experiment: Southern hybridization viral assay in HepG2.2.15 cells; assay type: cell-based, hepatitis B virus; conditions: titrated concentrations, FIGS. 11, 12
# Excerpt: The activity of antisense oligonucleotides was also studied in a viral assay in HepG2.2.15 cells, which have been stably transfected with plasmids carrying whole HBV genomes (Sells et al. (1987) Proc. Nat. Acad. Sci. 84:1005–1009; Sureau et al. (1986) Cell 47:37–47). […] A more definitive test is Southern hybridization, which provides data concerning the character of the detected DNA in addition to quantitation. This assay has been described previously for the screening of anti-HBV compounds on HepG2.2.15 cells (Doong et al. (1991) Proc. Nat. Acad. Sci. (USA) 88:8495–8499). In view of the many potential sources of HBV DNA from transfected cells, this assay allows for a more meaningful interpretation of results than the other methods mentioned.
# The cell line HepG2.2.15 (Sells et al. (1988) J. Virol. 62:2836–2844) was routinely cultured in RPMI.1640 medium (Life Technologies Ltd., Paisley, Scotland) supplemented with 10% fetal bovine serum (FBS), 100 U/ml penicillin, and 150 μg/ml streptomycin. Cultures were replaced after 10 passages with cells freshly cultured from a mycoplasma-free frozen stock. Cultures were maintained at 37° C. in a humidified atmosphere of 5% CO2 in air.
# Cells were cultured in 6-well plates at 10^6 cells/well in 4 ml medium (RPMI.1640 as above but supplemented with 5% FBS) and maintained as above. […]
Substance,"antisense activity on luciferase expression, parent pGLori [1]","total RNA cleavage by RNase H ([2]; 10+10 and 12+12 noncontiguous oligonucleotides versus mixtures of arms, FIGS. 5A, 6A)","double cleavage (twice cleaved product) by RNase H on both sides of the epsilon stem ([2]; FIGS. 5B, 6B)",inhibition of the formation of replicative intermediate (RI) HBV DNA [3]
"Luc +1–+20: 20mer phosphorothioate antisense oligonucleotide targeting the first 20 nucleotides of the firefly luciferase coding region, positive control, SEQ ID NO:50 (antisense ATGTTTTTGGCGTCTTCCAT; all phosphorothioate, sugars by position and methylation of C not given here)",exhibited antisense activity,,,
AGGCAGAGGTGATATAAGGGTCGA (chemistry not given here) [HBV67],,equal,efficiently activate RNase H cleavage on both sides of the stem after only 1.5 minutes; also recorded: slightly more cleavage than mode A (HBV79),Inhibition was also found
"ACCCAAGGCACAGCTTGGAG (phosphorothioate, further chemistry not given here) [HBV6]",,,,significant inhibition

# — US6984729B1, “Oligonucleotides specific for hepatitis B virus” (priority 1995, dated 2006)
